≈ marks a conversion by molar mass, not a printed value.
Columns and labels:
Giardia intestinalis = assay: Antiprotozoal activity against Giardia lamblia IMSS: 8909:1 trophozoites assessed as growth inhibition compound treated for 48 hrs measured 48 hrs post wash-out by MTT assay; type: functional, organism-based; settings: Giardia duodenalis, IMSS: 8909:1, 48 h
Entamoeba histolytica = assay: Antiprotozoal activity against Entamoeba histolytica HM-1:IMSS trophozoites assessed as growth inhibition compound treated for 48 hrs measured 48 hrs post wash-out by MTT assay; type: functional, organism-based

SMILES | IC50 (Giardia intestinalis) [µg/mL] | IC50 (Entamoeba histolytica) [µg/mL]
C=C1C(=O)O[C@H]2/C=C(C)\C=C/[C@H]3O[C@]3(C)CC(=O)[C@@H]12 | 30.6 (≈ 118 µM) | 34.9 (≈ 134 µM)
C=C1C(=O)O[C@H]2/C=C(C)\C=C/[C@H]3O[C@]3(C)C[C@@H](OC(C)C)[C@@H]12 | 32.7 (≈ 107 µM) | 28.7 (≈ 94.3 µM)
C=C1C(=O)O[C@H]2/C=C(C)\C=C/[C@H]3O[C@]3(C)C[C@@H](OCCC)[C@@H]12 | 31.2 (≈ 103 µM) | 35.9 (≈ 118 µM)
C=C1C(=O)O[C@H]2/C=C(C)\C=C/[C@H]3O[C@]3(C)C[C@@H](OC(=O)C(C)C)[C@@H]12 | 62.2 (≈ 187 µM) | 52.7 (≈ 159 µM)
C=C1C(=O)O[C@H]2/C=C(C)\C=C/[C@H]3O[C@]3(C)C[C@@H](OC(C)=O)[C@@H]12 | 18.1 (≈ 59.5 µM) | 2.6 (≈ 8.54 µM)
C=C1C(=O)O[C@H]2/C=C(C)\C=C/[C@H]3O[C@]3(C)C[C@@H](O)[C@@H]12 | 257 (≈ 979 µM) | 138 (≈ 525 µM)
C=C1C(=O)O[C@H]2/C=C(C)\C=C/[C@H]3O[C@]3(C)C[C@@H](OCC)[C@@H]12 | 43.8 (≈ 151 µM) | 31.9 (≈ 110 µM)
C=C1C(=O)O[C@H]2/C=C(C)\C=C/[C@H]3O[C@]3(C)C[C@@H](OC(=O)CCCC)[C@@H]12 | 58.3 (≈ 168 µM) | 51.7 (≈ 149 µM)
C=C1C(=O)O[C@H]2/C=C(C)\C=C/[C@H]3O[C@]3(C)C[C@@H](OC(=O)C(F)(F)F)[C@@H]12 | 43.3 (≈ 121 µM) | 37.7 (≈ 105 µM)
C=C(C)C(=O)O[C@@H]1C[C@@]2(C)O[C@@H]2/C=C\C(C)=C/[C@@H]2OC(=O)C(=C)[C@@H]21 | 44.2 (≈ 134 µM) | 32.7 (≈ 99 µM)
C=C1C(=O)O[C@H]2/C=C(C)\C=C/[C@H]3O[C@]3(C)C[C@@H](OC(=O)CCC)[C@@H]12 | 51.7 (≈ 156 µM) | 49.1 (≈ 148 µM)
C=C1C(=O)O[C@H]2/C=C(C)\C=C/[C@H]3O[C@]3(C)C[C@@H](OC(=O)CC)[C@@H]12 | 68.8 (≈ 216 µM) | 51.6 (≈ 162 µM)
C=C1C(=O)O[C@H]2/C=C(C)\C=C/[C@H]3O[C@]3(C)C[C@@H](OC)[C@@H]12 | 35.2 (≈ 127 µM) | 29.4 (≈ 106 µM)

From ChEMBL document CHEMBL3352419, “Antiprotozoal activity of 8-acyl and 8-alkyl incomptine A analogs” (Bioorg Med Chem Lett, 2014)
